Values after ≈ are worked out from the molar mass of the structure shown.
Legend:
[1] = system: Puccinia recondita tritici = Puccinia triticina; experiment: Fungicidal activity vs. leaf rust on wheat plants; assay type: in vivo; settings: wheat (variety Yuma) sprayed at 50 ppm, inoculated on the following day, evaluated 7-9 days later; read-out: Puccinia Rating (% Disease Control @ 50 ppm)
From the text: D. Evaluation of Fungicidal Activity Vs. Leaf Rust (Causal Agent Puccinia recondita tritici=Puccinia triticina; Bayer Code PUCCRT). […] Each pot contained 3-8 seedlings. These plants were sprayed until wet with the formulated test compounds. The compounds were formulated at 50 ppm in 10 vol. % acetone plus 90 vol. % Triton X water (deionized water 99.99 wt %+0.01 wt % Triton X100), giving a “formulated test compound.” Formulated test compounds were applied to plants using a turn table sprayer fitted with two opposing air atomization nozzles which delivered approximately 1500 L/ha of spray volume. On the following day, the leaves were inoculated with an aqueous spore suspension of Puccinia recondita tritici and the plants were kept in high humidity overnight to permit spores to germinate and infect the leaf. The plants were then transferred to a greenhouse until disease developed on untreated control plants. Disease severity was evaluated 7-9 days later, depending on the speed of disease development. In each case of Table 3, the Puccinia rating scale is as follows: […]

[2] = system: Septoria tritici (ATCC 26517); experiment: Minimum Inhibitory Concentration (MIC) (Septoria tritici), CLSI-based microdilution; assay type: cell-based; settings: Zymoseptoria tritici, ATCC26517, 168 h, S. tritici ATCC 26517; 22° C. for seven days; 50% reduction in growth; read-out: Septoria Rating (MIC)
Method: C. Minimum Inhibitory Concentration (MIC) (Septoria tritici)
Compounds of the present disclosure were assessed for their ability to inhibit the growth of a common strain of the fungal plant pathogen Septoria tritici (ATCC 26517) using a procedure based on a Clinical and Laboratory Standards Institute (CLSI) microdilution assay protocol for filamentous fungi.
Stock solutions of the test compounds and standards were prepared in DMSO at 6400 μg/mL. Each stock solution was used to prepare a 2-fold dilution series ranging from 16 to 0.016 μg/mL (total of 11 compound concentrations) in RPMI-1640 (Roswell Park Memorial Institute) medium containing 3-(N-morpholino)propanesulfonic acid (MOPS) buffer and 2% DMSO. A 100 μL aliquot of the dilutions was added to columns 1 (16 μg/mL compound) through 11 (0.016 μg/mL compound) of a 96-well microtiter plate. This format was replicated in a second row of the microtiter plate. Thus, each microtiter plate could include 11 concentrations of four test or control compounds replicated twice. A 100 μL aliquot of RPMI-1640/MOPS/2% DMSO medium was added to column 12 (no compound control) of the microtiter plate.
A fresh culture of S. tritici was used to prepare a solution of approximately 5×10^4 colony-forming units per milliliter (cfu/mL) in RPMI/MOPS medium without DMSO. A 100 µL aliquot of this solution was added to all 96 wells in the microtiter plate. […] The assay plates were incubated at 22° C. for seven days in the dark without shaking.
In each case of Table 3 the Septoria rating scale is as follows: […]

Structure (SMILES)	MIC [2]	pest or weed control at 50 ppm [1]
N#Cc1ccc(C(F)(F)c2ccc(C(F)(F)C(O)(Cn3cnnn3)c3ccc(F)cc3F)nc2)cc1 (centres unmarked) [Compound 103, 4-((6-(2-(2,4-difluorophenyl)-1,1-difluoro-2-hydroxy-3-(1H-tetrazol-1-yl)propyl)pyridin-3-yl)difluoromethyl)benzonitrile]	1.5 to 4 µg/mL (≈ 2.97 to 7.93 µM)	80 to 100%
N#Cc1ccc(-c2ccc(C(F)(F)C(O)(Cn3cnnn3)c3ccc(F)cc3F)nc2)nc1 (centres unmarked) [Compound 95, 6′-(2-(2,4-difluorophenyl)-1,1-difluoro-2-hydroxy-3-(1H-tetrazol-1-yl)propyl)-[2,3′-bipyridine]-5-carbonitrile]	1.5 to 4 µg/mL (≈ 3.29 to 8.78 µM)	80 to 100%
OC(Cn1cnnn1)(c1ccc(F)cc1F)C(F)(F)c1ccc(F)cn1 (centres unmarked) [Compound 10, 2-(2,4-Difluorophenyl)-1,1-difluoro-1-(5-fluoropyridin-2-yl)-3-(1H-tetrazol-1-yl)propan-2-ol]	1.5 µg/mL (≈ 4.04 µM)	80 to 100%
OC(Cn1cnnn1)(c1ccc(F)cc1F)C(F)(F)c1ccc(C2CC2)cn1 (centres unmarked) [Compound 18, 1-(5-Cyclopropylpyridin-2-yl)-2-(2,4-difluorophenyl)-1,1-difluoro-3-(1H-tetrazol-1-yl)propan-2-ol]	≤ 0.5 µg/mL	80 to 100%
N#Cc1ccc(OCc2ccc(C(F)(F)C(O)(Cn3cnnn3)c3ccc(F)cc3F)nc2)cc1 (centres unmarked) [Compound 79, 4-((6-(2-(2,4-Difluorophenyl)-1,1-difluoro-2-hydroxy-3-(1H-tetrazol-1-yl)propyl)pyridin-3-yl)methoxy)benzonitrile]	≤ 0.5 µg/mL	80 to 100%
OC(Cn1cnnn1)(c1ccc(F)cc1F)C(F)(F)c1ccc(-c2ccc(C(F)F)s2)cn1 (centres unmarked) [Compound 33, 1-(5-(5-(Difluoromethyl)thiophen-2-yl)pyridin-2-yl)-2-(2,4-difluorophenyl)-1,1-difluoro-3-(1H-tetrazol-1-yl)propan-2-ol]	≤ 0.5 µg/mL	80 to 100%
OC(Cn1cncn1)(c1ccc(F)cc1F)C(F)(F)c1ccc(Cl)cn1 (centres unmarked) [Compound 29, 1-(5-Chloropyridin-2-yl)-2-(2,4-difluorophenyl)-1,1-difluoro-3-(1H-1,2,4-triazol-1-yl)propan-2-ol]	≤ 0.5 µg/mL	80 to 100%
OC(Cn1cnnn1)(c1ccc(F)cc1F)C(F)(F)c1ccc(-c2ccc(C(F)(F)F)cn2)cn1 (centres unmarked) [Compound 94, 2-(2,4-difluorophenyl)-1,1-difluoro-3-(1H-tetrazol-1-yl)-1-(5-(trifluoromethyl)-[2,3′-bipyridin]-6′-yl)propan-2-ol]	≤ 0.5 µg/mL	80 to 100%
OC(Cn1cnnn1)(c1ccc(F)cc1F)C(F)(F)c1ccc(C(F)(F)c2ccc(F)cc2)cn1 (centres unmarked) [Compound 101, 1-(5-(difluoro(4-fluorophenyl)methyl)pyridin-2-yl)-2-(2,4-difluorophenyl)-1,1-difluoro-3-(1H-tetrazol-1-yl)propan-2-ol]	1.5 to 4 µg/mL (≈ 3.02 to 8.04 µM)	80 to 100%
OC(Cn1cnnn1)(c1ccc(Cl)cc1F)C(F)(F)c1ccc(F)cn1 (centres unmarked) [Compound 27, 2-(4-Chloro-2-fluorophenyl)-1,1-difluoro-1-(5-fluoropyridin-2-yl)-3-(1H-tetrazol-1-yl)propan-2-ol]	1.5 µg/mL (≈ 3.87 µM)	80 to 100%
OC(Cn1cnnn1)(c1ccc(F)cc1F)C(F)(F)c1ccc(-c2ccncc2)cn1 (centres unmarked) [Compound 96, 1-([3,4′-bipyridin]-6-yl)-2-(2,4-difluorophenyl)-1,1-difluoro-3-(1H-tetrazol-1-yl)propan-2-ol]	1.5 to 4 µg/mL (≈ 3.49 to 9.29 µM)	60 to 79%
OC(Cn1cnnn1)(c1ccc(F)cc1F)C(F)(F)c1ccc(COc2ccc(C(F)(F)F)cn2)cn1 (centres unmarked) [Compound 99, 2-(2,4-difluorophenyl)-1,1-difluoro-3-(1H-tetrazol-1-yl)-1-(5-(((5-(trifluoromethyl)pyridin-2-yl)oxy)methyl)pyridin-2-yl)propan-2-ol]	≤ 0.5 µg/mL	80 to 100%

More lines, main results first:

MIC [2]	Structure (SMILES)	pest or weed control at 50 ppm [1]
≤ 0.5 µg/mL	OC(Cn1cnnn1)(c1ccc(F)cc1F)C(F)(F)c1ccc(-c2ccc(Cl)cn2)cn1 (centres unmarked) [Compound 93, 1-(5-chloro-[2,3′-bipyridin]-6′-yl)-2-(2,4-difluorophenyl)-1,1-difluoro-3-(1H-tetrazol-1-yl)propan-2-ol]	80 to 100%
≤ 0.5 µg/mL	OC(Cn1cnnn1)(c1ccc(Cl)cc1F)C(F)(F)c1ccc(-n2nccn2)cn1 (centres unmarked) [Compound 28, 1-(5-(2H-1,2,3-Triazol-2-yl)pyridin-2-yl)-2-(4-chloro-2-fluorophenyl)-1,1-difluoro-3-(1H-tetrazol-1-yl)propan-2-ol]	80 to 100%
≤ 0.5 µg/mL	OC(Cn1cnnn1)(c1ccc(F)cc1F)C(F)(F)c1ccc(COc2ncc(C(F)(F)F)cc2Cl)cn1 (centres unmarked) [Compound 100]	80 to 100%
≤ 0.5 µg/mL	N#Cc1ccc(OCc2ccc(C(F)(F)C(O)(Cn3cnnn3)c3ccc(F)cc3F)nc2)c(F)c1 (centres unmarked) [Compound 88, 4-((6-(2-(2,4-difluorophenyl)-1,1-difluoro-2-hydroxy-3-(1H-tetrazol-1-yl)propyl)pyridin-3-yl)methoxy)-3-fluorobenzonitrile]	80 to 100%
≤ 0.5 µg/mL	CCOC/C=C/c1ccc(C(F)(F)C(O)(Cn2cnnn2)c2ccc(F)cc2F)nc1 (centres unmarked) [Compound 51, (E)-2-(2,4-Difluorophenyl)-1-(5-(3-ethoxyprop-1-en-1-yl)pyridin-2-yl)-1,1-difluoro-3-(1H-tetrazol-1-yl)propan-2-ol]	< 40%
≤ 0.5 µg/mL	OC(Cn1cnnn1)(c1ccc(Cl)cc1F)C(F)(F)c1ccc(CC(F)(F)F)cn1 (centres unmarked) [Compound 39, 2-(4-Chloro-2-fluorophenyl)-1,1-difluoro-3-(1H-tetrazol-1-yl)-1-(5-(2,2,2-trifluoroethyl)pyridin-2-yl)propan-2-ol]	80 to 100%
≤ 0.5 µg/mL	OC(Cn1cnnn1)(c1ccc(F)cc1F)C(F)(F)c1ccccn1 (stereo not drawn) [2(−), 2-(2,4-Difluorophenyl)-1,1-difluoro-1-(pyridin-2-yl)-3-(1H-tetrazol-1-yl)propan-2-ol]	80 to 100%
≤ 0.5 µg/mL	N#Cc1cccc(OCc2ccc(C(F)(F)C(O)(Cn3cnnn3)c3ccc(F)cc3F)nc2)c1F (centres unmarked) [Compound 89, 3-((6-(2-(2,4-difluorophenyl)-1,1-difluoro-2-hydroxy-3-(1H-tetrazol-1-yl)propyl)pyridin-3-yl)methoxy)-2-fluorobenzonitrile]	80 to 100%
≤ 0.5 µg/mL	O=C(c1ccc(C(F)(F)F)cc1)c1ccc(C(F)(F)C(O)(Cn2cnnn2)c2ccc(F)cc2F)nc1 (centres unmarked) [Compound 66, (6-(2-(2,4-Difluorophenyl)-1,1-difluoro-2-hydroxy-3-(1H-tetrazol-1-yl)propyl)pyridin-3-yl)(4-(trifluoromethyl)phenyl)methanone]	80 to 100%
≤ 0.5 µg/mL	OC(Cc1cnco1)(c1ccc(F)cc1F)C(F)(F)c1ccc(Br)cn1 (centres unmarked) [Compound 83, 1-(5-Bromopyridin-2-yl)-2-(2,4-difluorophenyl)-1,1-difluoro-3-(oxazol-5-yl)propan-2-ol]	80 to 100%
≤ 0.5 µg/mL	OC(Cn1cnnn1)(c1ccc(Cl)cc1F)C(F)(F)c1ccc(CC2CC2)cn1 (centres unmarked) [Compound 60, 2-(4-Chloro-2-fluorophenyl)-1-(5-(cyclopropylmethyl)pyridin-2-yl)-1,1-difluoro-3-(1H-tetrazol-1-yl)propan-2-ol]	80 to 100%
≤ 0.5 µg/mL	OC(Cn1cnnn1)(c1ccc(F)cc1F)C(F)(F)c1ccc(Cc2ccc(C(F)(F)F)cc2)cn1 (centres unmarked) [Compound 73, 2-(2,4-Difluorophenyl)-1,1-difluoro-3-(1H-tetrazol-1-yl)-1-(5-(4-(trifluoromethyl)benzyl)pyridin-2-yl)propan-2-ol]	80 to 100%
≤ 0.5 µg/mL	N#Cc1ccc(OCc2ccc(C(F)(F)C(O)(Cn3cnnn3)c3ccc(F)cc3F)nc2)nc1 (centres unmarked) [Compound 98, 6-((6-(2-(2,4-difluorophenyl)-1,1-difluoro-2-hydroxy-3-(1H-tetrazol-1-yl)propyl)pyridin-3-yl)methoxy)nicotinonitrile]	80 to 100%

— patent publication US9221791B2, “Metalloenzyme inhibitor compounds” (Viamet Pharmaceuticals, Inc., priority 2011, dated 2015)
